Source: PubChem BioAssay AID2060363 (Molecular Pharmacology Branch, DTP, NCI, 2025)

Test system: 156681-154-R-J1-PDC tumor spheroids, viability % test/control
Test: Anticancer human tumor 156681-154-R-J1-PDC patient-derived melanoma cell line growth inhibition [TAK]
Conditions: spheroids with HUVEC and MSC; for IC50: curve of first compound; for viability, T/C: stronger effect = lower value; active = viability on the fitted dose curve at most 10% of control; inactive = the rest
Excerpt: Combinatorial screen of targeted agents with TAK-243 and ipatasertib in multi-cell type tumor spheroids
A high-throughput screen of multi-cell type tumor spheroids was designed to identify active combinations of targeted small molecules and TAK-243 or ipatasertib. Complex spheroids include a stromal component modeled by human endothelial cells (HUVEC) and fibroblasts modeled by human mesenchymal stem cells (MSCs). The concentration ranges selected for each drug and investigational agent were based upon clinically achievable concentrations if the clinical Cmax of the agent was known.
Compounds. The drugs and investigational agents: TAK-243 (785004), ipatasertib (767898), everolimus (733504), selumetinib (741078), bortezomib (756655), trametinib (758246), ixazomib (758254), vemurafenib (761431), dabrafenib (764134), sapanisertib (764658), alpelisib (765974), and copanlisib (816437), were obtained from the National Cancer Institute (NCI) Developmental Therapeutics Program Chemical Repository. The FDA-approved anticancer drug set is available from the NCI Developmental Therapeutics Program. […] The stock solutions were prepared in dimethyl sulfoxide (DMSO, Sigma-Aldrich, St. Louis, MO, cat. D2650) at 800-fold the tested concentration and stored at -70 degrees C prior to their use. All drugs and investigational agents were tested over a range starting from a high concentration at or near the clinical Cmax and decreasing in half-log increments. If the clinical Cmax for an agent had not been determined, the highest concentration tested was 10 microM.
NCI60 Cell Culture. NCI60 cell lines were obtained from the NCI Developmental Therapeutics Program Tumor Repository. For each lot of cells, the Repository performed Applied Biosystems AmpFLSTR Identifiler testing with PCR amplification to confirm consistency with the published Identifier STR profile for each cell line. Cells were kept in continuous culture for no more than 20 passages. The optimal seeding densities for each of the cell lines at each time point assessed were determined prior to performing the concentration response studies. Briefly, the NCI60 human tumor lines were grown as monolayers in RPMI 1640 medium supplemented with 10% FBS and 2 mmol/L L-glutamine.
An additional 2 lines were from the NCI60 cell line panel including melanomas, MALME-3M and SK-MEL-2. Pooled donor human umbilical vein endothelial cells (HUVEC, Lonza, cat. CC-2519) and human mesenchymal stem cells (hMSC, Lonza, cat. PT-2501) were purchased from Lonza (Walkersville, MD).
PDMR cell lines were grown in complete medium (DC medium): Dulbecco's modified Eagle's medium (DMEM)/F12 supplemented with 5% fetal bovine serum (FBS), 2 mM L-glutamine, 100 U/mL penicillin and 100 µg/ml streptomycin, 0.4 µg/ml hydrocortisone, 10 ng/ml epidermal growth factor (EGF) recombinant human protein, 24 µg/mL adenine, and 0.1 mg/mL primocin. During culture from frozen stock vials, PDMR cells were cultured in the same medium containing 10 µM Y-27632 (see Table 3). The PDCs were cultured in complete DMEM/F12 media without 10 microM Y-27632 dihydrochloride for at least two passages prior to the screen. The pooled donor HUVEC and hMSC were cultured in endothelial cell growth medium 2 (PromoCell, Heidelberg, Germany, cat. C-22011) and mesenchymal stem cell growth medium 2 (PromoCell, cat. C-28009), respectively. For all experiments, HUVEC and hMSC were used at passages </=5.
For the pre-screen, cell seeding densities were determined from a titration spanning the range from 5,000 to 313 cells per well. The mct-spheroids including 60% malignant cells, 25% HUVEC and 15% MSC dispensed as a mixture into U-bottom Ultra-Low Attachment 384-well plates (Corning, NY)
High-throughput Drug Combination Screening.
Prior to their inoculation into 384-well plates, malignant cells, HUVEC, and hMSC were removed from T flasks using TrypLE express (Thermo Fisher Scientific, cat. 12605036) and harvested by centrifugation for 5 min at 233 x g. […]
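Also: spheroids exposed to compounds for 7 days before the endpoint.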

CC(=O)Nc1cccc(-n2c(=O)n(C3CC3)c(=O)c3c(Nc4ccc(I)cc4F)n(C)c(=O)c(C)c32)c1 + CC(C)NCC(C(=O)N1CCN(c2ncnc3c2C(C)CC3O)CC1)c1ccc(Cl)cc1
1.39 nM: IC50 (second compound 3 µM)
3.28 nM: IC50 (second compound 0.3 µM)
< 0.0949 nM: IC50 (second compound 9.49 µM) | IC50 (second compound 30 µM)
active: viability, T/C (second compound 0.3 µM, first compound 0.03 µM) 7.15% | viability, T/C (second compound 0.949 µM, first compound 0.00949 µM) 8.92% | viability, T/C (second compound 0.949 µM, first compound 0.03 µM) 6.03% | viability, T/C (second compound 3 µM, first compound 0.00949 µM) 7.24% | viability, T/C (second compound 3 µM, first compound 0.03 µM) 2.71% | viability, T/C (second compound 9.49 µM, first compound 0.00949 µM) 3.14% | viability, T/C (second compound 9.49 µM, first compound 0.03 µM) 0.73% | viability, T/C (second compound 30 µM, first compound 0.003 µM) 4.9% | viability, T/C (second compound 30 µM, first compound 0.00949 µM) 1.63% | viability, T/C (second compound 30 µM, first compound 0.03 µM) 0.28%
3.04 nM: IC50 (second compound 0.949 µM)
inactive: viability, T/C (second compound 0.3 µM, first compound 94.9 pM) 92% | viability, T/C (second compound 0.3 µM, first compound 0.0003 µM) 105% | viability, T/C (second compound 0.3 µM, first compound 0.000949 µM) 95.2% | viability, T/C (second compound 0.3 µM, first compound 0.003 µM) 53.3% | viability, T/C (second compound 0.3 µM, first compound 0.00949 µM) 11% | viability, T/C (second compound 0.949 µM, first compound 94.9 pM) 88.9% | viability, T/C (second compound 0.949 µM, first compound 0.0003 µM) 89.2% | viability, T/C (second compound 0.949 µM, first compound 0.000949 µM) 84.2% | viability, T/C (second compound 0.949 µM, first compound 0.003 µM) 50.8% | viability, T/C (second compound 3 µM, first compound 94.9 pM) 72.3% | viability, T/C (second compound 3 µM, first compound 0.0003 µM) 69.3% | viability, T/C (second compound 3 µM, first compound 0.000949 µM) 63.6% | viability, T/C (second compound 3 µM, first compound 0.003 µM) 22.9% | viability, T/C (second compound 9.49 µM, first compound 94.9 pM) 43.4% | viability, T/C (second compound 9.49 µM, first compound 0.0003 µM) 43.6% | viability, T/C (second compound 9.49 µM, first compound 0.000949 µM) 31.1% | viability, T/C (second compound 9.49 µM, first compound 0.003 µM) 13% | viability, T/C (second compound 30 µM, first compound 94.9 pM) 17.9% | viability, T/C (second compound 30 µM, first compound 0.0003 µM) 18.9% | viability, T/C (second compound 30 µM, first compound 0.000949 µM) 11.8%

CC(C)CC(NC(=O)C(Cc1ccccc1)NC(=O)c1cnccn1)B(O)O (stereo not given) + CC(C)NCC(C(=O)N1CCN(c2ncnc3c2C(C)CC3O)CC1)c1ccc(Cl)cc1
inactive: viability, T/C (second compound 0.3 µM, first compound 31.6 pM) 98.5% | viability, T/C (second compound 0.3 µM, first compound 0.0001 µM) 97% | viability, T/C (second compound 0.3 µM, first compound 0.000316 µM) 91.9% | viability, T/C (second compound 0.3 µM, first compound 0.001 µM) 97.3% | viability, T/C (second compound 0.3 µM, first compound 0.00316 µM) 23.9% | viability, T/C (second compound 0.949 µM, first compound 31.6 pM) 85.2% | viability, T/C (second compound 0.949 µM, first compound 0.0001 µM) 87.4% | viability, T/C (second compound 0.949 µM, first compound 0.000316 µM) 91% | viability, T/C (second compound 0.949 µM, first compound 0.001 µM) 90.1% | viability, T/C (second compound 3 µM, first compound 31.6 pM) 63.9% | viability, T/C (second compound 3 µM, first compound 0.0001 µM) 67.6% | viability, T/C (second compound 3 µM, first compound 0.000316 µM) 66% | viability, T/C (second compound 3 µM, first compound 0.001 µM) 66.7% | viability, T/C (second compound 3 µM, first compound 0.00316 µM) 15.7% | viability, T/C (second compound 9.49 µM, first compound 31.6 pM) 40.6% | viability, T/C (second compound 9.49 µM, first compound 0.0001 µM) 39% | viability, T/C (second compound 9.49 µM, first compound 0.000316 µM) 37.8% | viability, T/C (second compound 9.49 µM, first compound 0.001 µM) 37.6% | viability, T/C (second compound 9.49 µM, first compound 0.00316 µM) 7.12% | viability, T/C (second compound 30 µM, first compound 31.6 pM) 17.8% | viability, T/C (second compound 30 µM, first compound 0.0001 µM) 18.6% | viability, T/C (second compound 30 µM, first compound 0.000316 µM) 16.9% | viability, T/C (second compound 30 µM, first compound 0.001 µM) 17.3%
< 0.0316 nM: IC50 (second compound 9.49 µM) | IC50 (second compound 30 µM)
2.09 nM: IC50 (second compound 0.3 µM)
1.44 nM: IC50 (second compound 3 µM)
active: viability, T/C (second compound 0.3 µM, first compound 0.01 µM) 0.32% | viability, T/C (second compound 0.949 µM, first compound 0.00316 µM) 9.77% | viability, T/C (second compound 0.949 µM, first compound 0.01 µM) 0.19% | viability, T/C (second compound 3 µM, first compound 0.01 µM) 0.22% | viability, T/C (second compound 9.49 µM, first compound 0.01 µM) 0.21% | viability, T/C (second compound 30 µM, first compound 0.00316 µM) 1.86% | viability, T/C (second compound 30 µM, first compound 0.01 µM) 0.31%
1.76 nM: IC50 (second compound 0.949 µM)
